For test [1], the target named is T1, rhesus H3 (Macaca mulatta, UniProt Q865E1).
T1 construct: 445 amino acid H3 receptor; expressed in transfected cells; host or cells: Flp-In T-REx 293 Cell Line (Invitrogen), pcDNA5/FRT/TO, induced with tetracycline
The test can be described thus: Rhesus H3 [3H]-Methylhistamine radioligand binding assay (SPA, cell membranes). Further details: species or system rhesus monkey (Macacca Mulatta). The note with it: [3H]-Methylhistamine 2 nM, Cheng-Prusoff. The method, then: (§1) Rhesus H3 membranes were prepared from the Flp-In T-REx 293 Cell Line (Invitrogen) stably transfected with pcDNA5/FRT/TO (Invitrogen) containing the rhesus monkey (Macacca Mulatta) 445 amino acid H3 receptor. (Genbank #AY231164). Stably transfected cultures were amplified in tissue culture flasks by standard tissue culture methods and induced to express rhesus H3 by exposure to 500 ng/ml tetracycline (Cellgro) for 24 hours. After induction, cells were dissociated from flasks utilizing Cell Stripper (Cellgro). Cells were centrifuged (1 K×g, 5 min) and pellet frozen in an ethanol-dry ice bath to disrupt cell membranes. Frozen cell pellet was re-suspended in 5 mM HEPES (pH 7.4, Invitrogen) at 10 ml/1000 cm2 of harvested cells. The cell suspension was drawn through an 18 gauge needle (2-3×) followed by a 23 gauge needle (2-3×) to further disrupt cell membranes. The cell suspension was centrifuged (40K×g, 30 min). Cell membrane pellet was re-suspended in 5 mM HEPES (pH 7.4, Invitrogen) at a final protein concentration of 10 mg/ml. Rhesus H3 membranes were stored under liquid nitrogen prior to use in [3H]-Methylhistamine and GTPγS radioligand binding assays.
(§2) Rhesus H3 radioligand binding assay was performed using rhesus H3 receptor membranes (prepared as described above), [3H]-Methylhistamine (Perkin Elmer) and WGA SPA beads (wheat germ agglutinin scintillation proximity assay) beads (Amersham). The assay was performed in 96-well Opti-Plates (Packard). Each reaction contained 50 μl rhesus H3 membranes (20-30 μg total protein), 50 μl WGA SPA beads (0.1 μg) and 50 μl of 83 Ci/mmol [^3H]-Methylhistamine (final concentration 2 nM) and 50 μl of tested compound. The compounds of this invention and/or vehicle were diluted with binding buffer from 10 mM DMSO stocks. Assay plates were sealed with TopSeal (Perkin Elmer) and mixed on shaker (25° C., 1 hour). Assay plates were read on TopCount scintillation counter (Packard). Results were analyzed by Hill transformation and Ki values were determined by Cheng-Prusoff equation. Similar procedure was employed to determine the binding data for rat.

The next test concerns the target Rat H3 (Rattus norvegicus, UniProt Q9QYN8). In words: Rat H3 radioligand binding assay (similar procedure). The method, then: as §2
The target in test [2] is T1, rhesus H3. The test can be described thus: GTPγS radioligand binding assay, inhibition of rhesus H3 constitutive functional activity in cell membranes. It is filed as biochemical, rhesus monkey (Macacca Mulatta). The following applies: basal rhesus H3-mediated GTPγS binding. On the procedure:
as §1
(In general: GTPγS is a poorly hydrolysed GTP analogue; its binding reports G protein activation.)

Where [3] appears, read: rat H3, similar procedure to the rhesus binding assay, read-out: Rat H3 Binding ki.

pKi: −log10 of the molar value. Read-outs that look alike come from different tables or passages of the source.

Sequence of Rat H3 (Q9QYN8 whole entry): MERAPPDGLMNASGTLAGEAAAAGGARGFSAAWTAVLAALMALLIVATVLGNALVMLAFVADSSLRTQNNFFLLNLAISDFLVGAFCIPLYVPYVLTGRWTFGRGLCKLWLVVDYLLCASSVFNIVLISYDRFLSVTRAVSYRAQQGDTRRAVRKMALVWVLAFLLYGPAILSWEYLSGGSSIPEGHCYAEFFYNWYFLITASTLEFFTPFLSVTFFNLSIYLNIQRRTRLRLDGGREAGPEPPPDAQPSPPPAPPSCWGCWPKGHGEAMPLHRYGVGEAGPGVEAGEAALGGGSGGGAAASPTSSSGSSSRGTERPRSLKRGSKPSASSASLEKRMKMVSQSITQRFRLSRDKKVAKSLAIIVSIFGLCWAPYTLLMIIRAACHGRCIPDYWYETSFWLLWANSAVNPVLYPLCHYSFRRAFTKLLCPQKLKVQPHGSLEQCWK
T1 sequence (Q865E1 1-445): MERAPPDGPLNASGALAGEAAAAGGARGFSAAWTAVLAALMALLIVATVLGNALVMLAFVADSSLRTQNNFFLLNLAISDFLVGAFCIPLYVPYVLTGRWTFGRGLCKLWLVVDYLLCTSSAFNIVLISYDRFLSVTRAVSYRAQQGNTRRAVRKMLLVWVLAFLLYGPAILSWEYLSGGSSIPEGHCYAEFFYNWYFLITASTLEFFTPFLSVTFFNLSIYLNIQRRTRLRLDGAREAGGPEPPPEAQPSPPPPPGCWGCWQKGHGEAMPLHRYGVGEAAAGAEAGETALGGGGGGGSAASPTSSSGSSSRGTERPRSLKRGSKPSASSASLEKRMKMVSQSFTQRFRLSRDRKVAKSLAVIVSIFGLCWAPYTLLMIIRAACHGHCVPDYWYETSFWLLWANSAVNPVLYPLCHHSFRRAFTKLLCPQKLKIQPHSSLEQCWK

Turning to `CNC(=O)c1ccc(N2CCc3cc(N4CC[C@H](N5CCC[C@@H]5C)C4)ccc3C2)nc1` [Example 1, N-Methyl-6-[6-((2S,3′S)-2-methyl-[1,3′]bipyrrolidinyl-1′-yl)-3,4-dihydro-1H-isoquinolin-2-yl]-nicotinamide], the results for the pKi at rhesus H3 [1] and on Rat H3 (setting [3]) were 9.41 and 9.02, respectively.

Take `C[C@H]1CCCN1[C@H]1CCN(c2ccc3c(c2)CCN(c2ccc(C(F)(F)F)cn2)C3)C1` [Example 2, 6-((2S,3′S)-2-Methyl-[1,3′]bipyrrolidinyl-1′-yl)-2-(5-trifluoromethyl-pyridin-2-yl)-1,2,3,4-tetrahydro-isoquinoline]: the negative-log Ki (pKi) (as a rule, the Ki on a negative log10 scale, so that one unit is a factor of ten) was 7.54 on rhesus H3 [1] and 7.25 at Rat H3 (setting [3]). At rhesus H3 [2], the “GTPγS-35 ASSAY % Inverse Agonism” value is on record as −37.4%.

As for `C[C@H]1CCCN1[C@H]1CCN(c2ccc3c(c2)CCN(c2cccnc2Cl)C3)C1` [Example 3, 2-(2-Chloro-pyridin-3-yl)-6-((2S,3′S)-2-methyl-[1,3′]bipyrrolidinyl-1′-yl)-1,2,3,4-tetrahydro-isoquinoline], the pKi on rhesus H3 [1] is 8.66; at Rat H3 (setting [3]), 8.21. For the same compound, the “GTPγS-35 ASSAY % Inverse Agonism” value on rhesus H3 [2] is recorded as −14.7%.

Turning to `Cc1cccc(N2CCc3cc(N4CC[C@H](N5CCC[C@@H]5C)C4)ccc3C2)n1` [Example 4, 6-((2S,3′S)-2-Methyl-[1,3′]bipyrrolidinyl-1′-yl)-2-(6-methyl-pyridin-2-yl)-1,2,3,4-tetrahydro-isoquinoline], the pKi is 9.32 on rhesus H3 [1] and 9.40 on Rat H3 (setting [3]). Moreover, the “GTPγS-35 ASSAY % Inverse Agonism” value at rhesus H3 [2] was −46.7%.

Take `C[C@H]1CCCN1[C@H]1CCN(c2ccc3c(c2)CCN(c2cnc(Br)nc2)C3)C1` [Example 5, 2-(2-Bromo-pyrimidin-5-yl)-6-((2S,3′S)-2-methyl-[1,3′]bipyrrolidinyl-1′-yl)-1,2,3,4-tetrahydro-isoquinoline]: the results for the pKi at rhesus H3 [1] and on Rat H3 (setting [3]) were 7.62 and 7.04, respectively. For the same compound, on rhesus H3 [2], the “GTPγS-35 ASSAY % Inverse Agonism” value was −36.4%.

With `C[C@H]1CCCN1[C@H]1CCN(c2ccc3c(c2)CCN(c2cncnc2)C3)C1` [Example 6, 6-((2S,3′S)-2-Methyl-[1,3′]bipyrrolidinyl-1′-yl)-2-pyrimidin-5-yl-1,2,3,4-tetrahydro-isoquinoline], the values for the negative-log Ki (pKi) at rhesus H3 [1] and on Rat H3 (setting [3]) were 9.01 and 8.82, respectively. On rhesus H3 [2], the “GTPγS-35 ASSAY % Inverse Agonism” value is on record as −48.7%.

In the case of `C[C@H]1CCCN1[C@H]1CCN(c2ccc3c(c2)CCN(c2cnc4ccccc4c2)C3)C1` [Example 7, 3-[6-((2S,3′S)-2-Methyl-[1,3′]bipyrrolidinyl-1′-yl)-3,4-dihydro-1H-isoquinolin-2-yl]-quinoline], the pKi is 9.55 on rhesus H3 [1] and 7.59 on Rat H3 (setting [3]). In addition, the “GTPγS-35 ASSAY % Inverse Agonism” value at rhesus H3 [2] is on record as −32.5%.

With `C[C@H]1CCCN1[C@H]1CCN(c2ccc3c(c2)CCN(c2nc4ccccc4o2)C3)C1` [Example 8, 2-Benzooxazol-2-yl-6-((2S,3′S)-2-methyl-[1,3′]bipyrrolidinyl-1′-yl)-1,2,3,4-tetrahydro-isoquinoline], the figures for the pKi at rhesus H3 [1] and on Rat H3 (setting [3]) were 6.17 and 5.92, respectively. Also, the “GTPγS-35 ASSAY % Inverse Agonism” value at rhesus H3 [2] was −29.4%.

Take `Cc1ccc(S(=O)(=O)N2CCc3cc(N4CCc5cc(N6CC[C@H](N7CCC[C@@H]7C)C6)ccc5C4)ccc3C2)cc1` [Example 9, 6-((2S,3′S)-2-Methyl-[1,3′]bipyrrolidinyl-1′-yl)-2′-(toluene-4-sulfonyl)-3,4,1′,2′,3′,4′-hexahydro-1H-[2,6′]biisoquinolinyl]: the pKi is 6.74 on rhesus H3 [1] and 6.42 on Rat H3 (setting [3]). Besides, the “GTPγS-35 ASSAY % Inverse Agonism” value at rhesus H3 [2] was −13.0%.

With `COc1cncc(N2CCc3cc(N4CC[C@H](N5CCC[C@@H]5C)C4)ccc3C2)c1` [Example 10, 2-(5-Methoxy-pyridin-3-yl)-6-((2S,3′S)-2-methyl-[1,3′]bipyrrolidinyl-1′-yl)-1,2,3,4-tetrahydro-isoquinoline], the pKi at rhesus H3 [1] was 9.62; on Rat H3 (setting [3]), 9.30. Besides, the “GTPγS-35 ASSAY % Inverse Agonism” value on rhesus H3 [2] is on record as −16.7%.

Turning to `Cc1cc(C(F)(F)F)cc(N2CCc3cc(N4CC[C@H](N5CCC[C@@H]5C)C4)ccc3C2)n1` [Example 11, 6-((2S,3′S)-2-Methyl-[1,3′]bipyrrolidinyl-1′-yl)-2-(6-methyl-4-trifluoromethyl-pyridin-2-yl)-1,2,3,4-tetrahydro-isoquinoline], the pKi on rhesus H3 [1] was 7.82; on Rat H3 (setting [3]), 7.30. The “GTPγS-35 ASSAY % Inverse Agonism” value on rhesus H3 [2] is −20.9%.

Regarding `C[C@H]1CCCN1[C@H]1CCN(c2ccc3c(c2)CCN(c2ccc(F)cn2)C3)C1` [Example 12, 2-(5-Fluoro-pyridin-2-yl)-6-((2S,3′S)-2-methyl-[1,3′]bipyrrolidinyl-1′-yl)-1,2,3,4-tetrahydro-isoquinoline], the pKi on rhesus H3 [1] was 8.89; at Rat H3 (setting [3]) it was 8.21. For the same compound, the “GTPγS-35 ASSAY % Inverse Agonism” value on rhesus H3 [2] is recorded as −23.3%.

`Cc1ccnc(N2CCc3cc(N4CC[C@H](N5CCC[C@@H]5C)C4)ccc3C2)c1` [Example 13, 6-((2S,3′S)-2-Methyl-[1,3′]bipyrrolidinyl-1′-yl)-2-(4-methyl-pyridin-2-yl)-1,2,3,4-tetrahydro-isoquinoline]: the values for the negative logarithm of the Ki (pKi) at rhesus H3 [1] and on Rat H3 (setting [3]) were 9.24 and 8.77, respectively. At rhesus H3 [2], the “GTPγS-35 ASSAY % Inverse Agonism” value is listed as −27.3%.

`C[C@H]1CCCN1[C@H]1CCN(c2ccc3c(c2)CCN(c2ncc(C(F)(F)F)cc2Cl)C3)C1` [Example 14, 2-(3-Chloro-5-trifluoromethyl-pyridin-2-yl)-6-((2S,3′S)-2-methyl-[1,3′]bipyrrolidinyl-1′-yl)-1,2,3,4-tetrahydro-isoquinoline]: the pKi on rhesus H3 [1] was 7.46; at Rat H3 (setting [3]), 6.51. Further, the “GTPγS-35 ASSAY % Inverse Agonism” value at rhesus H3 [2] is on record as −18.3%.

With `C[C@H]1CCCN1[C@H]1CCN(c2ccc3c(c2)CCN(c2cccc(N4CCCC4)n2)C3)C1` [Example 15, 6-((2S,3′S)-2-Methyl-[1,3′]bipyrrolidinyl-1′-yl)-2-(6-pyrrolidin-1-yl-pyridin-2-yl)-1,2,3,4-tetrahydro-isoquinoline], the pKi on rhesus H3 [1] was 8.32; on Rat H3 (setting [3]), 7.66. Besides, the “GTPγS-35 ASSAY % Inverse Agonism” value at rhesus H3 [2] was −13.8%.

Consider `C[C@H]1CCCN1[C@H]1CCN(c2ccc3c(c2)CCN(c2ccc(Cl)cn2)C3)C1` [Example 16, 2-(5-Chloro-pyridin-2-yl)-6-((2S,3′S)-2-methyl-[1,3′]bipyrrolidinyl-1′-yl)-1,2,3,4-tetrahydro-isoquinoline], for which the negative logarithm of the Ki (pKi) was 8.34 at rhesus H3 [1] and 7.57 at Rat H3 (setting [3]). In addition, the “GTPγS-35 ASSAY % Inverse Agonism” value on rhesus H3 [2] was −21.9%.

Take `C[C@H]1CCCN1[C@H]1CCN(c2ccc3c(c2)CCNCC3)C1` [Example 17, 7-((2S,3′S)-2-Methyl-1,3′-bipyrrolidinyl-1′-yl)-2,3,4,5-tetrahydro-1H-3-benzazepine]: the pKi on rhesus H3 [1] is 8.92; on Rat H3, 8.23. The “GTPγS-35 ASSAY % Inverse Agonism” value on rhesus H3 [2] is recorded as −14.7%.

Turning to `C[C@H]1CCCN1[C@H]1CCN(c2ccc3c(c2)CCN(c2cnc4ccccc4c2)CC3)C1` [Example 18, 7-((2S,3′S)-2-Methyl-[1,3′]bipyrrolidinyl-1′-yl)-3-quinolin-3-yl-2,3,4,5-tetrahydro-1H-benzo[d]azepine], the pKi is 7.59 at rhesus H3 [1] and 8.92 at Rat H3 (setting [3]). The “GTPγS-35 ASSAY % Inverse Agonism” value on rhesus H3 [2] is given as −8.2%.

Turning to `C[C@H]1CCCN1[C@H]1CCN(c2ccc3c(c2)CCN(c2ccc(C(F)(F)F)cn2)CC3)C1` [Example 19, 7-((2S,3′S)-2-Methyl-[1,3′]bipyrrolidinyl-1′-yl)-3-(5-trifluoromethyl-pyridin-2-yl)-2,3,4,5-tetrahydro-1H-benzo[d]azepine], the pKi is 7.60 at rhesus H3 [1] and 9.03 at Rat H3 (setting [3]). Besides, the “GTPγS-35 ASSAY % Inverse Agonism” value at rhesus H3 [2] is −8.9%.

In the case of `CNC(=O)c1ccc(N2CCc3ccc(N4CC[C@H](N5CCC[C@@H]5C)C4)cc3CC2)nc1` [Example 20, N-Methyl-6-[7-((2S,3′S)-2-methyl-[1,3′]bipyrrolidinyl-1′-yl)-1,2,4,5-tetrahydro-benzo[d]azepin-3-yl]-nicotinamide], the pKi at rhesus H3 [1] is 8.00; on Rat H3 (setting [3]) it was 9.57. The “GTPγS-35 ASSAY % Inverse Agonism” value at rhesus H3 [2] is on record as −8.4%.

The record behind these values is patent publication US8623877B2, “Substituted N-heteroaryl tetrahydro-isoquinoline derivatives, preparation and therapeutic use thereof” (Sanofi, priority 2010, dated 2014).
